This experiment concerns the target T1, recombinant hTREX1(1-242)WT (hT1) (Homo sapiens, UniProt Q9NSU2).
T1 construct: recombinant hTREX1(1-242)^WT
T1 sequence (Q9NSU2 1-242): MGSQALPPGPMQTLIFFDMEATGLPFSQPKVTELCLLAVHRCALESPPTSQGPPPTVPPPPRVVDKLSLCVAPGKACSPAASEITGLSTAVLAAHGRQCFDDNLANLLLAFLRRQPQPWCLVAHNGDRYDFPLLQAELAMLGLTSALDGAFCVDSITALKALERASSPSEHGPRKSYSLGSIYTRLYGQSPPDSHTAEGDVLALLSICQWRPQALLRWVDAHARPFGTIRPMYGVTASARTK
Briefly: fluorescence-based exonuclease assay, hTREX1 IC50 and HTS. In kind it is biochemical. The protocol: FIG. 1: Determining IC50 of Candidate Compounds. […] Standard time-course reactions were prepared in 150 µL volumes containing vehicle or indicated concentrations of inhibitor (Panel A= 0.1-10 µM; Panel C= 1-50 µM), incubated 1 hr at room temperature, and 20 µL samples of each reaction taken at time-points of 0, 5, 10, 20, 30, 45, & 60 minutes and quenched in 20 µL of 15X SYBR Green. Fluorescence was measured, and fluorescence versus time plots were normalized to maximal initial fluorescence and background fluorescence. Plots were fitted with nonlinear regression, then initial velocities of each reaction interpolated and normalized to vehicle-only control reactions to give percent activity. Plots of inhibitor concentration versus percent activity were fit with nonlinear regression to interpolate compound IC50. Plots were generated in Prism (GraphPad) and combined in PowerPoint. Active compounds had IC50 determined in at least three separate experiments. Panels E-F: Gel Assay Validation of Hit Compound IC50. Several hit compounds, including those shown, had their IC50 confirmed via gel assay to validate efficacy of the fluorescence-based biochemical assay. Results of the gel and fluorescence assays were in agreement for all compounds tested. Standard time-course reactions containing nicked plasmid were prepared in 150 µL volumes with the indicated concentrations of inhibitor, and incubated at room temperature. Reaction samples were taken at indicated times, quenched, dried in vacuo, resuspended, then visualized by agarose gel electrophoresis. Control lanes containing supercoiled dsDNA plasmid (‘Plasmid’) and undegraded nicked dsDNA plasmid (‘Nicked’) are included. Low-MW residual bands are ssDNA plasmid leftover from TREX1 exonuclease activity.
We altered a reported fluorescence-based exonuclease assay^17,23 for the purposes of HTS. The assay parameters were optimized to limit materials use and maximize the dynamic range of the assay readout. We used this assay to perform a HTS of the three mentioned libraries against recombinant hTREX1(1-242)^WT, hereafter abbreviated as ‘hT1’. In the case of all libraries, compounds eliciting ≤50% activity at their indicated screening concentrations were identified as ‘candidates’.
The biochemical assay used for HTS was also applied to determining candidate IC50. Briefly, time-course reactions were performed for a range of concentrations for each candidate, and plots of fluorescence vs time were normalized to the initial fluorescence of the reaction and the plate-wide background fluorescence. This normalization helped address compounds with inherent effects on the fluorescent readout. Initial velocities were calculated from normalized plots and used to calculate percent activities relative to vehicle-only control reactions. Standard dose-response curves were then constructed to interpolate candidate IC50. […] Candidates that initially tested with IC50 ≤100 µM had their IC50 redetermined in two additional, independent experiments. […] To validate the efficacy of the fluorescence-based assay at determining IC50, several of the hit compounds had their IC50 confirmed using a gel assay previously described by our lab^23. Briefly, a dsDNA plasmid is nicked, the substrate is incubated with TREX1 which degrades off (partially or completely) the nicked strand, and the reaction is quenched in ethanol, dried in vacuo, and visualized via agarose gel electrophoresis. Example data of these validation assays is provided (FIG. 1, Panels E-F).

Where [1] appears, read: experiment 1, read-out: IC50 #1.
Where [2] appears, read: experiment 2, read-out: IC50 #2.
Setting [3] is: experiment 3, read-out: IC50 #3.
The mark [4] stands for this setting: median of three independent experiments, read-out: Median IC50.

The record followed here is patent US20230278957A1, “TREX1 INHIBITORS AND USES THEREOF” (WAKE FOREST UNIVERSITY HEALTH SCIENCES, priority 2020, published 2023).

Read-outs that look alike come from different tables or passages of the source.

In the case of `Cc1cccc(C(=O)Nc2ccc(-c3cc4ccccc4oc3=O)cc2)c1` [TIM003], the IC50 – broadly, the midpoint of a concentration-inhibition curve – turned out to be 24.9 µM under setting [1], 7.8 µM under setting [2], 8.8 µM under setting [3] and 8.8 µM under setting [4].

Take `Cc1cnc(/C=C/c2ccccc2)c2[nH]c3ccccc3c12` [TIM047]: the 50% inhibitory concentration (IC50) runs as follows: under setting [1], 16 µM; under setting [2], 6.8 µM; under setting [3], 15 µM; under setting [4], 15 µM.

With `COc1ccc(N2C(=O)c3ccc(Oc4ccc(Oc5ccc(C(=O)O)cc5)cc4)cc3C2=O)cc1` [TIM050], the IC50 is, setting by setting: under setting [1], 3.7 µM; under setting [2], 3 µM; under setting [3], 5.3 µM; under setting [4], 3.7 µM.

For `O=C1c2cccc([N+](=O)[O-])c2C(=O)N1c1cccc(-c2nc3ccccc3c(=O)o2)c1` [TIM136], the IC50 under setting [1] is 5.7 µM, the IC50 under setting [2] is 9.9 µM, the IC50 under setting [3] amounted to 10.2 µM and the IC50 under setting [4] is 9.9 µM.

With `CCn1c2ccccc2c2cc([C@H]3Nc4ccccc4NC4=C3C(=O)C[C@@H](c3ccc(OC)cc3)C4)ccc21` [TIM137], the IC50 by setting is: under setting [1], 6.7 µM; under setting [2], 16.2 µM; under setting [3], 5.6 µM; under setting [4], 6.7 µM.

With `Cc1cc(C)c(S(=O)(=O)Nc2ccc3c(c2)c2c(n3S(=O)(=O)c3cc(C)c(C)cc3C)CCCC2=O)cc1C` [TIM146], the IC50 by setting is: under setting [1], 15 µM; under setting [2], 6.4 µM; under setting [3], 37.9 µM; under setting [4], 15 µM.

As to `Cc1ccc(-n2c(=O)c3cc4c(=O)n(-c5ccc(C)c(C)c5)c(=O)c4c(C(=O)c4ccc(C(=O)O)cc4)c3c2=O)cc1C` [TIM148], the IC50 reads like this: under setting [1], 6.4 µM; under setting [2], 8.5 µM; under setting [3], 11.9 µM; under setting [4], 8.5 µM.

Take `Cc1ccc(-c2noc(-c3cc(N4CCC(C(N)=O)CC4)nc4ccccc34)n2)cc1` [TIM178]: the IC50 runs as follows: under setting [1], 6.9 µM; under setting [2], 3.7 µM; under setting [3], 7.2 µM; under setting [4], 6.9 µM.

Take `CC(C)(C)c1ccc(CC2CCN(C(=O)c3cncn3-c3cccc(-c4cccc5c4sc4ccccc45)c3)CC2)cc1` [TIM181]: the IC50 was 3.5 µM under setting [1], 5.9 µM under setting [2], 4.6 µM under setting [3] and 4.6 µM under setting [4].

With `N#Cc1c(O)nc(SCC(=O)N2c3ccccc3Sc3ccccc32)nc1-c1ccccc1` [TIM183], the IC50 reads like this: under setting [1], 3.6 µM; under setting [2], 8.5 µM; under setting [3], 8.8 µM; under setting [4], 8.5 µM.

With `COc1ccc2[nH]c3c(c2c1)CCC[C@H]3NC(=O)COc1ccc2c3c(c(=O)oc2c1)CCCC3` [TIM184], the IC50 runs as follows: under setting [1], 5.1 µM; under setting [2], 7 µM; under setting [3], 7 µM; under setting [4], 7 µM.

With `Cc1ccc2nc(N3C(=O)C(=O)C(=C(O)c4ccc5c(c4)C[C@H](C)O5)[C@@H]3c3cccs3)sc2c1` [TIM185], the IC50 is, setting by setting: under setting [1], 13.1 µM; under setting [2], 14.9 µM; under setting [3], 113 µM; under setting [4], 14.9 µM.

Regarding `Cn1c(O)c(N=NC(=O)[C@@H]2COc3cc4ccccc4cc3O2)c2cc(Br)ccc21` [TIM191], the IC50 was 8.5 µM under setting [1], 7.8 µM under setting [2], 10 µM under setting [3] and 8.5 µM under setting [4].

For `COc1cc2c3c(ccc4c5ccc6c7c(cc(OC)c(c1c34)c75)-c1ccccc1C6=O)-c1ccccc1C2=O` [TIM192], the IC50 reads like this: under setting [1], 13.3 µM; under setting [2], 13 µM; under setting [3], 8.1 µM; under setting [4], 13 µM.

For the molecule `O=C1Nc2ccc(S(=O)(=O)ON3C(=O)c4cccc5cccc(c45)C3=O)c3cccc1c23` [TIM213], the IC50 was 2.4 µM under setting [1], 5 µM under setting [2], 10.7 µM under setting [3] and 5 µM under setting [4].

Take `O=c1c2cnc3nc(-c4ccc(Cl)cc4)nn3c2ccn1Cc1cccnc1` [TIM215]: the IC50 worked out at 13.9 µM under setting [1], 14.6 µM under setting [2], 12 µM under setting [3] and 13.9 µM under setting [4].
